Data set [1] concerns stationary phase B. burgdorferi. The data set can be described thus: Residual viable B. burgdorferi by epifluorescence microscope counting after drug exposure. The conditions noted are these: for viability at 50 µM: Borreliella burgdorferi, 168 h, read-out: Residual viable cells (Microscopy). On the procedure: (§1) Borrelia burgdorferi strain B31 (ATCC35210) was received from the […] (Manassas, Va., USA) and was grown in BSK-H medium (HiMedia Laboratories, Mumbai, India) and 6% rabbit serum (Sigma Aldrich, St. Louis, Mo., USA). The culture was filtered and sterilized using a […] and incubated in capped sterile 50 mL conical tubes (BD Biosciences, CA, USA) at 33° C. for 7 days without antibiotics until the culture reached stationary phase.
(§2) The cultures were examined using a Nikon Eclipse E800 microscope with differential interference contrast and epifluorescent illumination. The pictures were captured using a SPOT slider color camera. A SYBR Green I/PI assay was used to assess the viability of the bacterial sample using the ratio of live to dead B. burgdorferi (measured with green and red fluorescence, respectively) as measured by a plate reader.
(§3) Briefly, prediluted drug stock (10 μL) was added to 7 day old stationary phase B. burgdorferi culture (90 μL) to achieve a 50 μM final drug concentration per well. The plates were then incubated at 33° C. for 7 days at which point the SYBR/PI rapid viability assay was performed in a fluorescence plate reader to obtain the green-red fluorescence ratio.

Data set [2] shares this test system. The data set is described as follows: SYBR Green I/PI viability assay (drug library screen, plate reader). Conditions: for viability at 50 µM: Borreliella burgdorferi, 168 h; for activity against stationary phase B. burgdorferi (in words): screen at 50 μM, 7 days; for Residual viable cells (SYBR Green/PI): Table 1; for Residual viable cells (SYBR/PI): Table 3. On the procedure: as §1, §2, §3

The next data set has as its system growing B. burgdorferi. The data set is described as follows: MIC of active hits. It is filed as cell-based, Borrelia burgdorferi.
Where [3] appears, read: read-out: Residual viable cells (SYBR Green/PI), Table 1, drugs 50 μM, 7 day old stationary phase cells treated for 7 days.
The mark [4] stands for this setting: read-out: Residual viable cells (SYBR/PI), Table 3, drugs 50 μM, 7-day old stationary phase cells treated for 7 days.
Setting [5] is: Borreliella burgdorferi, read-out: MIC.
The mark [6] stands for this setting: Table 1, drugs 50 μM, 7 day old stationary phase cells treated for 7 days.
[7] abbreviates: Table 3, drugs 50 μM, 7-day old stationary phase cells treated for 7 days.
[8] abbreviates: drugs 50 μM, 7 day old stationary phase cells treated for 7 days.
[9] abbreviates: drugs 50 μM, 7-day old stationary phase cells treated for 7 days.
Setting [10] is: read-out: Residual viable cells (SYBR/PI).

The record followed here is patent US20190008848A1, “IDENTIFICATION OF ADDITIONAL ANTI-PERSISTER ACTIVITY AGAINST BORRELIA BURGDORFERI FROM AN FDA DRUG LIBRARY” (THE JOHNS HOPKINS UNIVERSITY, priority 2015, published 2019).

Entries after “also recorded” stand apart in the source; their conditions may differ. Where two headings read alike, the source gives them in different places.

Usually MIC stands for the lowest concentration that inhibits growth of the organism.

In the case of `OC(Cn1cncn1)(Cn1cncn1)c1ccc(F)cc1F` [Fluconazole], the viability at 50 µM in data set [1] was found to be 45%; in data set [2] (setting [3]) it was 55%; in data set [2] (setting [4]) it was 55%. In addition, the “activity against stationary phase B. burgdorferi (in words)” value (from here on “activity”) in data set [2] is recorded as “reasonable activity”. Besides, the MIC in the data set on growing B. burgdorferi (setting [5]) lay in the range of 0.48 to 0.96 µg/mL.
On to `Cc1c(-c2cnccn2)ssc1=S` [Oltipraz], for which the viability at 50 µM in data set [1] amounted to 55%; in data set [2] (setting [3]), 46%; in data set [2] (setting [4]) it was 46%. The “activity” value in data set [2] is “high activity”. In the data set with growing B. burgdorferi (setting [5]), the MIC was 0.71 to 1.41 µg/mL.
Consider Dextrorphan tartrate, for which the “Residual viable cells (Microscopy)” value in data set [1] (setting [6]) and in data set [1] (setting [7]) was 43% each time. Besides, the “Residual viable cells (SYBR Green/PI)” value in data set [2] (setting [8]) is on record as 47%. Besides, in data set [2] (setting [9]), the “Residual viable cells (SYBR/PI)” value is 47%. Also, the “activity” value in data set [2] is on record as “high activity”. In addition, the MIC in the data set with growing B. burgdorferi fell in the range of 1.27 to 2.55 µg/mL.
Take `CCCCCCCCCCCCCCCC[N+](C)(C)CCN(Cc1ccc(OC)cc1)c1ncccn1` [Thonzonium bromide]: the viability at 50 µM in data set [1] came to 33%; in data set [2] (setting [4]) it was 31%. In data set [2], the “activity” value is “very high activities; also recorded: comparable activity to daptomycin”. Also, the MIC with growing B. burgdorferi (setting [5]) is 0.92 to 1.85 µg/mL.
On to `CCc1nc(N)nc(N)c1-c1ccc(Cl)cc1` [Pyrimethamine], for which the viability at 50 µM came out at 55% in data set [1], 45% in data set [2] (setting [3]) and 45% in data set [2] (setting [4]).
Turning to `CC1(C)S[C@@H]2[C@H](NC(=O)[C@H](N)c3ccc(O)cc3)C(=O)N2[C@H]1C(=O)O` [Amoxicillin], the viability at 50 µM in data set [1], in data set [2] (setting [3]) and in data set [2] (setting [4]) was 76% in each case.
Take `CO[C@H]1/C=C/O[C@@]2(C)Oc3c(C)c(O)c4c(O)c(c(C=O)c(O)c4c3C2=O)NC(=O)/C(C)=C\C=C\[C@H](C)[C@H](O)[C@@H](C)[C@@H](O)[C@@H](C)[C@H](OC(C)=O)[C@@H]1C` [3-formyl Rifamycin]: the “Residual viable cells (Microscopy)” value in data set [1] (setting [6]) and in data set [1] (setting [7]) was 59% each time. The “Residual viable cells (SYBR Green/PI)” value in data set [2] (setting [8]) was found to be 42%. Also, the “Residual viable cells (SYBR/PI)” value in data set [2] (setting [9]) amounted to 42%. Moreover, in the data set on growing B. burgdorferi, the MIC was in the range of 2.27 to 4.54 µg/mL.
Consider `Cc1cc(-n2c(=O)[nH]c(=O)n(C)c2=O)ccc1Oc1ccc(SC(F)(F)F)cc1` [Toltrazuril], for which the viability at 50 µM in data set [1] amounted to 60%; in data set [2] (setting [3]), 43%; in data set [2] (setting [4]) it was 43%.
As to `CN[C@@H]1C[C@@H](c2ccc(Cl)c(Cl)c2)c2ccccc21.Cl` [Indatraline, Indatraline hydrochloride], the “Residual viable cells (Microscopy)” value in data set [1] (setting [6]) and in data set [1] (setting [7]) was 43% throughout. In addition, the “Residual viable cells (SYBR Green/PI)” value in data set [2] (setting [8]) came out at 51%. Moreover, the “Residual viable cells (SYBR/PI)” value in data set [2] (setting [9]) was 51%. Also, in data set [2], the “activity” value is reported as “high activity”.
As to `CC[C@H]1OC(=O)[C@H](C)[C@@H](O[C@H]2C[C@@](C)(OC)[C@@H](O)[C@H](C)O2)[C@H](C)[C@@H](O[C@@H]2O[C@H](C)C[C@H](N(C)C)[C@H]2O)[C@](C)(O)C[C@@H](C)/C(=N\OCOCCOC)[C@H](C)[C@@H](O)[C@]1(C)O` [Roxithromycin], the viability at 50 µM in data set [1] was 65%; in data set [2] (setting [3]), 62%; in data set [2] (setting [4]), 62%.
Turning to `CC(C)(C)C(=O)C(Oc1ccc(Cl)cc1)n1ccnc1` (stereo not shown) [Climbazole], the viability at 50 µM came out at 71% in data set [1] and 62% in data set [2] (setting [4]). Besides, in data set [2], the “activity” value is “reasonable activity”.
In the case of Verteporfin, in data set [1], the “Residual viable cells (Microscopy)” value is recorded as 47%. Moreover, the “activity” value in data set [2] is listed as “high activity”. The MIC in the data set on growing B. burgdorferi fell in the range of 4.49 to 8.98 µg/mL.
Regarding `O=C(O)[C@@H]1CCC(O)=N1` (racemic) [Pidolic acid, DL-2-Pyrrolidone-5-Carboxylic Acid], the results for the viability at 50 µM in data set [1], in data set [2] (setting [3]) and in data set [2] (setting [4]) were 45%, 45% and 43%, respectively. The “activity” value in data set [2] is listed as “high activity”. Further, in the data set on growing B. burgdorferi (setting [5]), the MIC was 0.81 to 1.61 µg/mL.
Take Mepartricin: the “Residual viable cells (Microscopy)” value in data set [1] (setting [6]) came to 60%. Moreover, in data set [2] (setting [8]), the “Residual viable cells (SYBR Green/PI)” value came to 43%. Moreover, the “Residual viable cells (SYBR/PI)” value in data set [2] (setting [9]) was determined as 43%. In addition, the “activity” value in data set [2] was “reasonable activity”.
As to `C=CCCCCCCCCC(=O)O` [Undecylenic acid], the viability at 50 µM was determined as 74% in data set [1] and 55% in data set [2] (setting [4]).
Regarding `CC1(C)S[C@@H]2[C@H](NC(=O)C(C(=O)O)c3ccccc3)C(=O)N2[C@H]1C(=O)O` (stereo partly shown) [Carbenicillin], the viability at 50 µM in data set [1] was 64%; in data set [2] (setting [3]), 46%; in data set [2] (setting [4]) it was 46%.
Regarding `C=C(NC(=O)C(=C)NC(=O)c1csc(C2=N[C@@H]3c4csc(n4)[C@H]4NC(=O)c5csc(n5)[C@H]([C@](C)(O)[C@@H](C)O)NC(=O)[C@H]5CSC(=N5)/C(=C/C)NC(=O)[C@H]([C@@H](C)O)NC(=O)c5csc(n5)[C@]3(CC2)NC(=O)[C@H](C)NC(=O)C(=C)NC(=O)[C@H](C)NC(=O)[C@H]([C@@H](C)CC)N[C@@H]2C=Cc3c([C@H](C)O)cc(nc3[C@H]2O)C(=O)O[C@@H]4C)n1)C(N)=O` [Thiostrepton], the viability at 50 µM amounted to 66% in data set [1], 43% in data set [2] (read-out: Residual viable cells (SYBR Green/PI)) and 43% in data set [2] (setting [10]).
In the case of `Nc1nc(=O)[nH]cc1F` [Flucytosine (5-Fluorocytosine), 5-Fluorocytosine], the figures for the viability at 50 µM in data set [1] and in data set [2] (setting [4]) were 66% and 68%, respectively.
For the molecule `Cc1nc(NS(=O)(=O)c2ccc(N)cc2)oc1C` [Sulfamoxole], the viability at 50 µM in data set [1] was 55%; in data set [2] (setting [3]) it was 57%; in data set [2] (setting [4]) it was 57%.
For the molecule `ClC(Cl)=C(Cl)Cl` [Tetrachloroethylene], the viability at 50 µM was determined as 53% in data set [1] and 36% in data set [2] (setting [10]).
As for `CCCCCCCCCC(=O)N[C@@H](Cc1c[nH]c2ccccc12)C(=O)N[C@H](CC(N)=O)C(=O)N[C@@H](CC(=O)O)C(=O)N[C@@H]1C(=O)NCC(=O)N[C@@H](CCCN)C(=O)N[C@@H](CC(=O)O)C(=O)N[C@H](C)C(=O)N[C@@H](CC(=O)O)C(=O)NCC(=O)N[C@H](CO)C(=O)N[C@@H]([C@H](C)CC(=O)O)C(=O)N[C@@H](CC(=O)c2ccccc2N)C(=O)O[C@@H]1C` [Daptomycin], the viability at 50 µM in data set [1] was 35%; in data set [2] (setting [3]) it was 28%; in data set [2] (setting [4]) it was 28%.
Consider `CCCCCCCCCCCC[N+](C)(C)Cc1ccccc1` [Benzododecinium chloride], for which the viability at 50 µM in data set [2] (setting [4]) worked out at 40%. Further, the “activity” value in data set [2] is given as “very high activities”. The MIC with growing B. burgdorferi (setting [5]) fell in the range of 0.6 to 1.2 µg/mL.
Consider `CC(=O)N[C@H]1[C@H]([C@H](O)[C@H](O)CO)OC(C(=O)O)=C[C@@H]1N=C(N)N` [Zanamivir], for which the figures for the viability at 50 µM in data set [1], in data set [2] (setting [3]) and in data set [2] (setting [4]) were 60%, 49% and 49%, respectively. Besides, the “activity” value in data set [2] is reported as “good activity”.
Regarding `C=CC1=C(C(=O)O)N2C(=O)[C@@H](NC(=O)/C(=N\OCC(=O)O)c3csc(N)n3)[C@H]2SC1` [Cefixime], the viability at 50 µM in data set [1], in data set [2] (setting [3]) and in data set [2] (setting [4]) was 56% in each case.
In the case of `C[C@]1(Cn2ccnn2)[C@H](C(=O)O)N2C(=O)C[C@H]2S1(=O)=O` [Tazobactam], the values for the viability at 50 µM in data set [1], in data set [2] (setting [3]) and in data set [2] (setting [4]) were 56%, 54% and 54%, respectively.
